Assay results: patent US11771738B2 (Zoetis Services LLC, priority 2018, dated 2023)
Like-named read-outs stand apart in the source and are kept apart here. Marks after values point to notes of the source that are not given here.

Columns and labels:
Assay type in all cases: cell-based
[1] = test system: third stage larvae of Haemonchus contortus; experiment: Haemonchus contortus, Larvae Stage 3 (HcL3) In Vitro Assay; conditions: for minimal effective concentration: Haemonchus contortus, 96 h
D. immitis L4 larvae = experiment: Dirofilaria immitis, L4 Stage (DiL4) In Vitro Assay; conditions: for minimal effective concentration: Dirofilaria immitis, 72 h, read-out: DiL4 MED, Minimum Effective Dose, D. immitis L4 larvae motility, in vitro; for DiMf/DiL4: larval stage selectivity, ratio of DiMf MED to DiL4 MED
[2] = test system: microfilariae of Dirofilaria immitis; experiment: Dirofilaria immitis, Microfilaria (DiMf) In Vitro Assay; conditions: for minimal effective concentration: Dirofilaria immitis, 72 h, read-out: DiMf MED, Minimum Effective Dose, D. immitis microfilariae motility, in vitro
[3] = read-out: HcL3 MED, Haemonchus contortus third stage larvae in vitro, class mark appended to the Ex # in Table 3
[4] = read-out: HcL3 MED, Minimum Effective Dose, H. contortus third stage larvae, approximately 96 hours
[5] = read-out: HcL3 MED, approximately 96 hours incubation, multiple-resistant field isolate

Row | SMILES | minimal effective concentration [1, 3] [µM] | minimal effective concentration [1, 4] [µM] | minimal effective concentration [1, 5] [µM] | minimal effective concentration (D. immitis L4 larvae) [µM] | DiMf/DiL4 (D. immitis L4 larvae) | minimal effective concentration [2] [µM] | minimal effective concentration ([1]; read-out: HcL3 MED (symbol after Ex#), approximately 96 hours incubation, multiple-resistant field isolate) [µM] | HcL3 MED ([1]; Haemonchus contortus third stage larvae in vitro, class mark appended to the Ex # in Table 3) | HcL3 MED ([1]; Minimum Effective Dose, H. contortus third stage larvae, approximately 96 hours) [µM] | DiL4 MED (D. immitis L4 larvae; Minimum Effective Dose, D. immitis L4 larvae motility, in vitro) [nM] | DiMf MED ([2]; Minimum Effective Dose, D. immitis microfilariae motility, in vitro) [nM]
1 | CC(C)C[C@H]1C(=O)O[C@H](Cc2ccc(Cc3cccnc3C(F)F)cc2)C(=O)N(C)[C@@H](CC(C)C)C(=O)O[C@H](C)C(=O)N(C)[C@@H](CC(C)C)C(=O)O[C@H](Cc2ccc(Cc3cccnc3C(F)F)cc2)C(=O)N(C)[C@@H](CC(C)C)C(=O)O[C@H](C)C(=O)N1C [Example 3-290, (3S,6R,9S,12R,15S,18R,21S,24R)-6,18-bis[[4-[[2-(difluoromethyl)-3-pyridyl]methyl]phenyl]methyl]-3,9,15,21-tetraisobutyl-4,10,12,16,22,24-hexamethyl-1,7,13,19-tetraoxa-4,10,16,22-tetrazacyclotetracosane-2,5,8,11,14,17,20,23-octaone] | < 1 | 0.2 | ≤ 1 | 0.0001 | 3 | 0.0003 | – | – | – | – | –
2 | COc1ccsc1Cc1ccc(C[C@H]2OC(=O)[C@H](CC(C)C)N(C)C(=O)[C@@H](C)OC(=O)[C@H](CC(C)C)N(C)C(=O)[C@@H](Cc3ccccc3)OC(=O)[C@H](CC(C)C)N(C)C(=O)[C@@H](C)OC(=O)[C@H](CC(C)C)N(C)C2=O)cc1 [Example 4-105, (3S,6R,9S,12R,15S,18R,21S,24R)-6-benzyl-3,9,15,21-tetraisobutyl-18-(4-((3-methoxythiophen-2-yl)methyl)benzyl)-4,10,12,16,22,24-hexamethyl-1,7,13,19-tetraoxa-4,10,16,22-tetraazacyclotetracosan-2,5,8,11,14,17,20,23-octaone] | – | 0.3 | ≤ 1 | 0.0002 | 25 | 0.005 | < 1 | – | – | – | –
3 | CC(C)C[C@H]1C(=O)O[C@H](Cc2ccc(Cc3cncs3)cc2)C(=O)N(C)[C@@H](CC(C)C)C(=O)O[C@H](C)C(=O)N(C)[C@@H](CC(C)C)C(=O)O[C@H](Cc2ccc(Cc3cncs3)cc2)C(=O)N(C)[C@@H](CC(C)C)C(=O)O[C@H](C)C(=O)N1C [Example 3-12, (3S,6R,9S,12R,15S,18R,21S,24R)-3,9,15,21-tetraisobutyl-4,6,10,16,18,22-hexamethyl-12,24-bis(4-(thiazol-5-ylmethyl)benzyl)-1,7,13,19-tetraoxa-4,10,16,22-tetraazacyclotetracosan-2,5,8,11,14,17,20,23-octaone] | 1 to 3.3 | 3.3 | – | 0.001 | 0.7 | 0.0007 | – | – | – | – | –
4 | COc1cccnc1Cc1ccc(C[C@H]2OC(=O)[C@H](CC(C)C)N(C)C(=O)[C@@H](C)OC(=O)[C@H](CC(C)C)N(C)C(=O)[C@@H](Cc3ccc(Cc4ncccc4OC)cc3)OC(=O)[C@H](CC(C)C)N(C)C(=O)[C@@H](C)OC(=O)[C@H](CC(C)C)N(C)C2=O)cc1 [Example 3-215] | – | – | – | – | >3.5 | – | – | 3-215* (Examples with an asterisk (*) have HcL3 MED values≤1 μM) | 1 | <0.2 | 0.7
5 | Cc1csc(Cc2ccc(C[C@H]3OC(=O)[C@H](CC(C)C)N(C)C(=O)[C@@H](C)OC(=O)[C@H](CC(C)C)N(C)C(=O)[C@@H](Cc4ccc(Cc5cc(C)cs5)cc4)OC(=O)[C@H](CC(C)C)N(C)C(=O)[C@@H](C)OC(=O)[C@H](CC(C)C)N(C)C3=O)cc2)c1 [Example 3-124, (3S,6R,9S,12R,15S,18R,21S,24R)-3,9,15,21-tetraisobutyl-4,6,10,16,18,22-hexamethyl-12,24-bis(4-((4-methylthiophen-2-yl)methyl)benzyl)-1,7,13,19-tetraoxa-4,10,16,22-tetraazacyclotetracosan-2,5,8,11,14,17,20,23-octaone] | < 1 | 0.3 | ≤ 1 | 0.001 | 100 | 0.1 | – | – | – | – | –
6 | CC(C)C[C@H]1C(=O)O[C@H](Cc2ccc(Cc3ccnn3CC3CC3)cc2)C(=O)N(C)[C@@H](CC(C)C)C(=O)O[C@H](C)C(=O)N(C)[C@@H](CC(C)C)C(=O)O[C@H](Cc2ccc(Cc3ccnn3CC3CC3)cc2)C(=O)N(C)[C@@H](CC(C)C)C(=O)O[C@H](C)C(=O)N1C [Example 3-275, (3S,6R,9S,12R,15S,18R,21S,24R)-6,18-bis(4-((1-(cyclopropylmethyl)-1H-pyrazol-5-yl)methyl)benzyl)-3,9,15,21-tetraisobutyl-4,10,12,16,22,24-hexamethyl-1,7,13,19-tetraoxa-4,10,16,22-tetraazacyclotetracosan-2,5,8,11,14,17,20,23-octaone] | 1 to 3.3 | 1.8 | – | 0.001 | 10 | 0.01 | – | – | – | – | –
7 | COc1nc(C)c(Cc2ccc(C[C@H]3OC(=O)[C@H](CC(C)C)N(C)C(=O)[C@@H](C)OC(=O)[C@H](CC(C)C)N(C)C(=O)[C@@H](Cc4ccc(Cc5sc(OC)nc5C)cc4)OC(=O)[C@H](CC(C)C)N(C)C(=O)[C@@H](C)OC(=O)[C@H](CC(C)C)N(C)C3=O)cc2)s1 [Example 3-209, (3S,6R,9S,12R,15S,18R,21S,24R)-3,9,15,21-tetraisobutyl-6,18-bis(4-((2-methoxy-4-methylthiazol-5-yl)methyl)benzyl)-4,10,12,16,22,24-hexamethyl-1,7,13,19-tetraoxa-4,10,16,22-tetraazacyclotetracosan-2,5,8,11,14,17,20,23-octaone] | – | > 100 | – | 0.0005 | 20 | 0.01 | – | – | – | – | –
8 | COc1ccc(Cc2ccc(C[C@H]3OC(=O)[C@H](CC(C)C)N(C)C(=O)[C@@H](C)OC(=O)[C@H](CC(C)C)N(C)C(=O)[C@@H](Cc4ccc(Cc5ccc(OC)nc5C)cc4)OC(=O)[C@H](CC(C)C)N(C)C(=O)[C@@H](C)OC(=O)[C@H](CC(C)C)N(C)C3=O)cc2)c(C)n1 [Example 3-121, (3S,6R,9S,12R,15S,18R,21S,24R)-3,9,15,21-tetraisobutyl-6,18-bis(4-((6-methoxy-2-methylpyridin-3-yl)methyl)benzyl)-4,10,12,16,22,24-hexamethyl-1,7,13,19-tetraoxa-4,10,16,22-tetraazacyclotetracosan-2,5,8,11,14,17,20,23-octaone] | 1 to 3.3 | 1.8 | – | 5e-05 | 60 | 0.003 | – | – | – | – | –
9 | COc1ncc(Cl)cc1Cc1ccc(C[C@H]2OC(=O)[C@H](CC(C)C)N(C)C(=O)[C@@H](C)OC(=O)[C@H](CC(C)C)N(C)C(=O)[C@@H](Cc3ccc(Cc4cc(Cl)cnc4OC)cc3)OC(=O)[C@H](CC(C)C)N(C)C(=O)[C@@H](C)OC(=O)[C@H](CC(C)C)N(C)C2=O)cc1 [Example 3-332, (3S,6R,9S,12R,15S,18R,21S,24R)-6,18-bis(4-((5-chloro-2-methoxypyridin-3-yl)methyl)benzyl)-3,9,15,21-tetraisobutyl-4,10,12,16,22,24-hexamethyl-1,7,13,19-tetraoxa-4,10,16,22-tetraazacyclotetracosan-2,5,8,11,14,17,20,23-octaone] | – | – | – | 0.0005 | 548 | 0.3 | – | – | – | – | –
